Measurements as given in patent publication US20250283873A1, “NERVOUS SYSTEM CELL-CONTAINING SPHEROID, METHOD FOR PRODUCING NERVOUS SYSTEM CELL-CONTAINING SPHEROID, AND METHOD FOR EVALUATING TEST SUBSTANCE” (Ricoh Company, Ltd., priority 2024, published 2025).

What was measured:
[1] = system: 3D spheroid-cultured nerve cells (human iPSC-derived nerve cells and human-derived primary cultured astrocytes); experiment: Calcium assay in 3D spheroid-cultured nerve cells (number of calcium spikes); type: cell-based; settings: for relative value (log 2) of a change in number of the calcium spikes (DMSO = 0) / relative value of the number of the calcium spikes (DMSO set to 100%): cultured 5 weeks; for relative value (log 2) of a change in number of the calcium spikes (DMSO = 0): Experimental Examples 4-9, FIG. 4-9
Description: Human iPSC-derived nerve cells (Excitatory Neurons, Elixirgen Scientific, Inc.) and human-derived primary cultured astrocytes (ScienCell Research Laboratories, Inc.) were mixed so that the number of cells per well was 8,000 for the nerve cells and 8,000 for the astrocytes, and seeded on a plate for producing a spheroid. As the culture medium, Neurobasal Plus (Thermo Fisher Scientific, Inc.) to which B-27 Plus Supplement (Thermo Fisher Scientific, Inc.), Glutamax (Thermo Fisher Scientific, Inc.), 200 μM ascorbic acid (FUJIFILM Wako Pure Chemical Corporation), and a 10% Neuron Culture medium (FUJIFILM Wako Pure Chemical Corporation) had been added was used. Subsequently, the cells were cultured for 6 weeks and a calcium assay which will be described later was performed.
In the case of the 3D spheroid-cultured nerve cells, each spheroid was transferred to a plate for measurement, a calcium-sensitive fluorescent dye (Cal-520AM, (AAT Bioquest, Inc.)), Pluronic F-127 (AAT Bioquest, Inc.), and the drug were added to the culture medium, and the fluorescence was measured at intervals of 0.5 seconds for 20 minutes using a fluorescence plate reader to measure the calcium spikes.
By setting the proportion of the change in number of the calcium spikes in a case where dimethyl sulfoxide (DMSO) used as a solvent for the drug was added to 0%, in a case where the number of the calcium spikes increased due to the addition of the drug, the value is shown to be positive, and in a case where the number of the calcium spikes decreased due to the addition of the drug, the value is shown to be negative.
A calcium assay was performed in the presence of a drug, using spheroids with different numbers of cells, and the drug responsiveness of the nerve cells was examined. Human iPSC-derived nerve cells (Excitatory Neurons, Elixirgen Scientific, Inc.) and human-derived primary cultured astrocytes (ScienCell Research Laboratories, Inc.) were mixed so that the number of cells per well was 8,000 for the nerve cells and 8,000 for the astrocytes, 4,000 for the nerve cells and 4,000 for the astrocytes, or 2,000 for the nerve cells and 2,000 for the astrocytes, and seeded on a plate for producing a spheroid. As the culture medium, Neurobasal Plus (Thermo Fisher Scientific, Inc.) to which B-27 Plus Supplement (Thermo Fisher Scientific, Inc.), Glutamax (Thermo Fisher Scientific, Inc.), 200 μM ascorbic acid (FUJIFILM Wako Pure Chemical Corporation), and a 10% Neuron Culture medium (FUJIFILM Wako Pure Chemical Corporation) had been added was used. Subsequently, the cells were cultured for 5 weeks, and a calcium assay was performed in the same manner as in Experimental Example 1. Chlorpromazine was used as the drug.
The values in the graph indicate the mean value±the standard deviation. The horizontal axis of the graph indicates the concentration of chlorpromazine in the culture medium, and the vertical axis of the graph indicates a relative value of the number of the calcium spikes in a case where dimethyl sulfoxide (DMSO) used as a solvent for the drug was added, with the number of the calcium spikes set to 100%. […] 0% indicates a state in which the calcium spikes completely disappear.
A calcium assay was performed in the same manner as in Experimental Example 2, except that the drug was changed to GABA and the number of cells constituting the spheroid was changed to 16,000 or 4,000, and the drug responsiveness of the nerve cells was examined.

[2] = system: 2D-cultured nerve cells (human iPSC-derived nerve cells and human-derived primary cultured astrocytes); experiment: Calcium assay in 2D-cultured nerve cells (number of calcium spikes); type: cell-based; settings: cultured 6 weeks, Experimental Example 1, FIG. 1
Description: Human iPSC-derived nerve cells (Excitatory Neurons, Elixirgen Scientific, Inc.) and human-derived primary cultured astrocytes (ScienCell Research Laboratories, Inc.) were seeded in a 384-well plate so that the number of cells per well was 10,000 for the nerve cells and 2,500 for the astrocytes. As the culture medium, Neurobasal Plus (Thermo Fisher Scientific, Inc.) to which B-27 Plus Supplement (Thermo Fisher Scientific, Inc.), Glutamax (Thermo Fisher Scientific, Inc.), 200 µM ascorbic acid (FUJIFILM Wako Pure Chemical Corporation), and a 10% Neuron Culture medium (FUJIFILM Wako Pure Chemical Corporation) had been added was used. Subsequently, the cells were cultured for 6 weeks and a calcium assay which will be described later was performed.
A calcium assay was performed in the presence of a drug to examine the drug responsiveness of the 2D-cultured nerve cells and the 3D spheroid-cultured nerve cells. Chlorpromazine was used as the drug.
In the case of the 2D-cultured nerve cells, a calcium-sensitive fluorescent dye (Cal-520AM, AAT Bioquest, Inc.) and a drug were added to the culture medium, and the fluorescence was measured at intervals of 0.5 seconds for 20 minutes using a fluorescence plate reader to measure the calcium spikes.
FIG. 1 is a graph showing the measurement results. The values in the graph indicate the mean value±the standard deviation. […]

[3] = spheroid of 4,000 cells, compared with 16,000 cells
[4] = spheroid of 4,000 cells, Experimental Examples 2-3, FIG. 2-3, chlorpromazine at 1 μM and 3 μM
[5] = spheroid of 8,000 cells, Experimental Examples 2-3, FIG. 2-3, chlorpromazine at 1 μM and 3 μM
[6] = spheroid of 16,000 cells, Experimental Examples 2-3, FIG. 2-3, chlorpromazine at 1 μM and 3 μM

SMILES	relative value (log 2) of a change in number of the calcium spikes (DMSO = 0) [1, 3]	relative value of the number of the calcium spikes (DMSO set to 100%) [1, 4]	relative value of the number of the calcium spikes (DMSO set to 100%) [1, 5]	relative value of the number of the calcium spikes (DMSO set to 100%) [1, 6]	further results
N#Cc1cc2c(cc1[N+](=O)[O-])=NC(=O)C(=O)N=2 [CNQX, 6-cyano-7-nitroquinoxaline-2,3-dione]	the action was exhibited at a lower concentration and a stronger action was exhibited at 4,000 cells in a concentration-dependent manner	–	–	–	–
CN(C)CCCN1c2ccccc2Sc2ccc(Cl)cc21 [chlorpromazine, Chlorpromazine]	the action was exhibited at a lower concentration and a stronger action was exhibited at 4,000 cells in a concentration-dependent manner	showed a concentration-dependent response	did not show a concentration-dependent response	did not show a concentration-dependent response	number of the calcium spikes (proportion of change vs DMSO) ([2]; 2D culture, 10,000 nerve cells and 2,500 astrocytes per well): the number of the calcium spikes decreased in a drug concentration-dependent manner; concentration at which the calcium spikes disappeared ([2]; 2D culture): 3 µM; change in number of the calcium spikes (vs DMSO) ([1]; 3D spheroid, 8,000 nerve cells + 8,000 astrocytes, cultured 6 weeks, Experimental Example 1, FIG. 1): no change in number of the calcium spikes was observed at any drug concentration
NCCCC(=O)O [GABA, γ-aminobutyric acid]	the action was exhibited at a lower concentration and a stronger action was exhibited at 4,000 cells in a concentration-dependent manner	–	–	–	–
NCCc1ccc(O)c(O)c1 [dopamine]	the action was exhibited at a lower concentration and a stronger action was exhibited at 4,000 cells in a concentration-dependent manner	–	–	–	–
NC(=O)N1c2ccccc2C=Cc2ccccc21 [carbamazepine]	the action was exhibited at a lower concentration and a stronger action was exhibited at 4,000 cells in a concentration-dependent manner	–	–	–	–
CN1CCc2cc3c(cc2[C@H]1[C@@H]1OC(=O)c2c1ccc1c2OCO1)OCO3 [bicuculine]	drug responsiveness was exhibited in a concentration-dependent manner	an increase in the number of the calcium spikes was observed in a concentration-dependent manner	a significant response was not observed	an increase in the number of the calcium spikes was not observed at any concentration	relative value of the number of the calcium spikes (DMSO set to 100%) ([1]; spheroid of 8,000 cells, drug at 30 μM, Experimental Example 3, FIG. 3): a tendency of an increase in the number of the calcium spikes was observed; relative value (log 2) of a change in number of the calcium spikes (DMSO = 0) ([1]; spheroid of 16,000 cells): no drug response was observed
